This note sets out measurements from patent publication US11685912B2, “Affinity purification of glycosidase-cleaving enzymes” (TAKEDA PHARMACEUTICAL COMPANY LIMITED, priority 2018, dated 2023).

The target in experiment [1] is T1, α-Gal A (Homo sapiens, UniProt P06280).
T1 sequence (P06280 32-429): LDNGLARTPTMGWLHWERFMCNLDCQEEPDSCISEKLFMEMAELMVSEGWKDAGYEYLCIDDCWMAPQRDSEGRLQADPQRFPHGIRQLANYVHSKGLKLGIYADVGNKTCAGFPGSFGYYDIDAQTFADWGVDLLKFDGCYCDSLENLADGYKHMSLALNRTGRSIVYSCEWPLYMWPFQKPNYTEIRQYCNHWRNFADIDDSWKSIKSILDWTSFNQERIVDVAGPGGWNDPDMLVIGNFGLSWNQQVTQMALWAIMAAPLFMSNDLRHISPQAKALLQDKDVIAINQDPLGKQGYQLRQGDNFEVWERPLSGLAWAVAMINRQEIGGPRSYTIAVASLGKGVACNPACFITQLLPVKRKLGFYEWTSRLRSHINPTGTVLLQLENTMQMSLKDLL
The conditions noted are these: buffer comprising Tris at 150 mM.

Experiment [2] concerns the target T1, α-Gal A. The conditions noted are these: 10 mM Tris vs 0 mM Tris. The procedure:
FIG. 1 depicts Thermal Stability curves of α-Gal A at 0 mM (blue) and 10 mM (red) Tris buffer.

The structures appear in SMILES notation.

Take `NC(CO)(CO)CO` [Tris, tris(hydroxymethyl)aminomethane]: on α-Gal A [1], the “elution of α-Gal A from the affinity resin” value is reported as “effectively eluted”. Moreover, at α-Gal A [2], the “α-Gal A thermal stability increase” value is 3 °C.
